Experiment [1] relates to Akita mice. The experiment is described as follows: Thermal latency response of hind paw in Akita mice. Format: in vivo. The conditions noted are these: fisetin 0.05% in diet for 18 weeks. The procedure:
Mice were placed in an observation chamber on the surface (floor temperature 30° C.) of a modified Hargreaves apparatus (UARD, San Diego, Calif.) and allowed to acclimate for 5 min. For measurement of thermal response latency, a heat source that warmed the chamber surface at approximately 1° C./sec was moved underneath the hind paw and the time to foot withdrawal recorded automatically. The procedure was repeated 4 times on the same paw at 5 min intervals and the median of values 2-4 used to represent the thermal response latency.
(§1) Male Akita mice were fed control diet or fisetin (0.05%) for 18 weeks beginning at 6 weeks of age. Large fiber function was tested by measuring motor nerve conduction velocity and small fiber function by paw withdrawal to noxious heat. Diabetes-induced MNCV slowing and thermal hypoalgesia were ameliorated by fisetin treatment. All data are mean±SD of N=5-7/group. […] P<0.05.

Experiment [2] has as its system Akita mice. The experiment is described as follows: Open field test in Akita mice. It counts as in vivo. The conditions noted are these: fisetin 0.05% in diet for 18 weeks. The procedure: The open field test was performed using MED Associates hardware and the Activity Monitor software according to the manufacturer's instructions (MED Associates Inc, St. Albans, Vt., USA). The open-field activity monitoring system contains a subject containment environment (chamber), infrared (I/R) sources and sensors. To perform the test, each mouse was placed in the testing chamber and the activity tracked by the Activity Monitor software for 30 min. The scanning was done every 50 ms. The behavioral parameters derived from the open field test included the following: distance traveled, ambulatory time and counts, stereotypic counts and time, resting time, vertical counts and time, jumping counts and time, average velocity, and ambulatory episodes.
Male Akita mice were fed control diet or fisetin (0.05%) for 18 weeks beginning at 6 weeks of age. Locomotor activity was measured in the open field test. Decreased locomotor activity is an indicator of elevated anxiety which is characteristic of diabetics in poor glycemic control. […] All data are mean±SD of N=5-7/group.

In experiment [3] the test system is Akita mice. Description: Kidney hypertrophy (kidney weight) in Akita mice. Format: in vivo. The conditions noted are these: fisetin 0.05% in diet for 18 weeks. The procedure:
Male Akita mice were fed control diet or fisetin (0.05%) for 18 weeks beginning at 6 weeks of age. Kidney hypertrophy was assessed by weighing the kidneys. Kidney function was assessed by measuring the albumin/creatinine ratio in the urine. Fisetin reduced diabetes-induced renal hypertrophy and proteinuria. All data are mean±SD of N=5-7/group.

In a further experiment the test system is HT-22 nerve cells. The experiment is described as follows: HT-22 nerve cells exposed to glutamate: MG adducts and viability. Format: cell-based. The conditions noted are these: 5 mM glutamate, 2 μM fisetin. The procedure: HT-22 nerve cells were exposed to 0.5 mM glutamate and Glo-1 expression monitored at 8 and 24 hrs. In panel (B) of FIG. 2, Fisetin is shown to prevent both cell death and protein glycation. HT-22 cells were exposed to 5 mM glutamate in the presence or absence of 2 μM fisetin. MG adducts were determined by Western blotting 8 hrs after glutamate exposure and viability after 24 hrs. Actin is at the bottom of the blot. In panel (C) of FIG. 2, the Glo-1 inhibitor s-p-bromobenzylglutathione […] is shown to potentiate cell death. HT-22 cells were exposed to 1 mM glutamate plus or minus 10 or 20 μM BBGD.

For experiment [4], the system named is STZ-diabetic rats. Description: Indices of nerve function in STZ-diabetic rats. It counts as in vivo, Sprague-Dawley rats. The conditions noted are these: 25 mg/kg/day fisetin for 8 weeks. The procedure:
Adult female Sprague-Dawley rats were made diabetic with STZ and treated with vehicle or 25 mg/kg/day fisetin for 8 weeks. Large fiber function was tested by measuring nerve conduction velocity and paw withdrawal to touch and small fiber function by paw withdrawal to noxious heat. […] Data are mean±SEM of N=4-8/group.

For experiment [5], the system named is Akita mice. The experiment is described as follows: Motor nerve conduction velocity in Akita mice. Format: in vivo. The conditions noted are these: fisetin 0.05% in diet for 18 weeks. On the procedure: Conduction velocity of large myelinated motor fibers in the sciatic:tibial nerve system was measured in mice under isoflurane anesthesia with nerve temperature maintained at 37° C., as previously described (Calcutt et al. Diabetes 39:663-666, 1990). Briefly, stimulating electrodes were placed at the left sciatic notch and Achilles tendon and recording electrodes placed in the interosseus muscles of the ipsilateral hind paw. Electromyograms were recorded on a storage oscilloscope after stimulation at each site using single square waves (5 v, 0.05 ms) and motor nerve conduction velocity (MNCV) calculated using the peak to peak distance of the resulting M waves and the distance between the two stimulation sites. The median of 3 separate MNCV measurements was used to represent values for each mouse.
as §1

Experiment [6] deals with peripheral and CNS immune cells. Particulars: peripheral [17] and CNS [8] immune cells; cited from earlier work.
Experiment [7] concerns STZ-diabetic rats. Description: Kidney function (urine albumin/creatinine ratio) in STZ-diabetic rats. Format: in vivo, Sprague-Dawley rats. Particulars: 25 mg/kg/day fisetin; 6 and 8 weeks after induction of diabetes. The procedure:
Urine albumin concentration was determined by competitive enzyme-linked immunoadsorbent assay using an Albuwell M kit (Exocell, Philadelphia, Pa.). Urine creatinine concentration was determined by Jaffe's reaction of alkaline picrate with creatinine using a Creatinine Companion kit (Exocell). Results are expressed as the urine albumin-to-creatinine ratio (micrograms per milligram).
Adult female Sprague-Dawley rats were made diabetic with STZ and treated with vehicle or 25 mg/kg/day fisetin. Kidney function was assessed by measuring the albumin/creatinine ratio in the urine at 6 and 8 weeks following induction of diabetes. Fisetin reduced diabetes-induced proteinuria. Data are mean±SEM of N=7-8/group.

“Also recorded” adds a separate entry of the source.

As to `O=c1c(O)c(-c2ccc(O)c(O)c2)oc2cc(O)ccc12` [fisetin, 2-(3,4-dihydroxyphenyl)-3,7-dihydroxychromen-4-one], the “thermal hypoalgesia (hind paw thermal latency)” value with Akita mice [1] is given as “ameliorated; also recorded: prevented”. Besides, the “locomotor activity in the open field test (distance traveled, ambulatory episodes)” value in the experiment on Akita mice [2] is recorded as “restored to near normal values”. Further, the “locomotor activity in the open field test (distance traveled, ambulatory episodes)” value in the experiment on Akita mice [2] (listed as Fisetin) is given as “restored locomotor activity to nearly control levels”. Also, the “diabetes-induced renal hypertrophy (kidney weight)” value with Akita mice [3] is given as “greatly reduced”. Further, the “diabetes-induced renal hypertrophy (kidney weight)” value in the experiment with Akita mice [3] (listed as Fisetin) is “reduced”. In the experiment with HT-22 nerve cells (Western blotting 8 hrs after glutamate), the “protein glycation (MG adducts)” value is on record as “prevent”. Further, the cell death result with HT-22 nerve cells (viability after 24 hrs) is on record as “prevent”. In the experiment on STZ-diabetic rats [4], the “diabetes-induced SNCV slowing” value is given as “ameliorated”, the severity of diabetes result was “did not alter”, the “tactile allodynia (paw withdrawal to touch)” value was “ameliorated” and the “thermal hyperalgesia (paw withdrawal to noxious heat)” value is on record as “ameliorated”. In the experiment on Akita mice [5], the “diabetes-induced MNCV slowing” value was “ameliorated; also recorded: prevented”. For the same molecule, the anti-inflammatory activity result in experiment [6] is “anti-inflammatory activity”. Moreover, the “diabetes-induced proteinuria (urine albumin/creatinine ratio)” value in the experiment with STZ-diabetic rats [7] is on record as “reduced”.
